Values joined by “and” are separate entries in the source; they are usually repeats but may differ in a detail not shown here. Identical values can stand only once. “Also recorded” adds a separate entry of the source.
Key:
HEK293 cells = conditions: Barbadin 100 µM; cited from earlier work
β-arrestin2 = assay: Confocal microscopy of β-arrestin2-YFP trafficking with AT1R; assay type: cell-based, human; conditions: 50 μM; AngII
Experimental: One day before transfection, cells were seeded in 35-mm glass-bottom dishes (MatTek Corporation) at a density of 1 × 10^5 cells per dish. For the recordings of receptor internalization, HEK293 SL cells were transfected with 2 μg of AT1R-YFP. For the recordings of β-arrestin-2 recruitment to the receptor, HEK293SL cells were transfected with 50 ng of β-arrestin2-YFP and 250 ng of Flag-AT1R or HA-B2R. Forty-eight hours post-transfection, cells were serum starved, preincubated with DMSO (0.1% final concentration) or Rasarfin (50 μM) for 30 min at 37 °C. AT1R-expressing cells were stimulated with angiotensinII (AngII; 100 nM) and B2R-expressing cells were stimulated with bradykinin (BK; 1 μM) for 30 min (receptor-YFP) or 15 min (β-arrestin2-YFP). Cells were imaged with Zeiss LSM-510 and/or LSM-710 laser scanning confocal microscope. To detect YFP, […] and BP 505–550 nm emission filter. Images (2048 × 2048) were collected using a 63x oil immersion lens.

ARF = target: T1, ARF (Homo sapiens, UniProt P62330); assay: ARF BRET sensor (GGA3-PBD-RlucII / rGFP-CAAX), AT1R-mediated; assay type: cell-based; conditions: for AngII-promoted BRET, AT1R-mediated ARF activation: individual experiments
T1 construct: endogenous in cells; host or cells: HEK293SL
T1 sequence (P62330 2-175): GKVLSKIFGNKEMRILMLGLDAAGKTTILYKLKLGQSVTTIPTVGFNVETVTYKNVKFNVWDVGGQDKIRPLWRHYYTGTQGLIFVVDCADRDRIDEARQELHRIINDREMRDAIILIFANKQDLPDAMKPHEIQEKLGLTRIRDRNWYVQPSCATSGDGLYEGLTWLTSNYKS
Experimental: HEK293 cells were transfected with a BRET sensor that monitors the interaction between β-arrestins and the β-appendage of AP-2 (Fig. 2a)[26],[33]. […] The small GTPase ARF6, which binds β-arrestins and facilitates AP-2 and clathrin recruitment at the PM, is also necessary for CCPs initiation and receptor internalization. Therefore, ARF6 activity was assessed using the protein-3 binding domain (PBD) of the golgi-associated, gamma adaptin ear-containing, ARF-binding protein 3 (GGA3) fused to GST (GST-GGA3-PBD) in a pull-down assay, which allows the detection of GTP-bound ARF6 in cells[34] (Fig. 2b). […] This inhibition was selective for ARF6 since 21 had no effect on AT1R-dependent ARF1 activation (Supplementary Fig. 2a). We also devised a BRET assay to quantitatively assess 21’s action on ARF activity. The ARF BRET assay was created using the GGA3-PBD fused to RlucII (GGA3-PBD-RlucII) and the rGFP anchored at the PM (rGFP-CAAX) (Supplementary Fig. 3a). […] 21 blocked ARF’s activation by 40–60% following AT1R stimulation (Fig. 2c).
HEK293SL cells were seeded at a density of 7.5 × 10^5 cells per 100-mm dish and 24 h later, transiently transfected as such. For receptor internalization experiments, cells were transfected with 0.12 μg AT1R-RlucII, B2R-RlucII, or β2AR-RlucII and 0.48 μg of either rGFP-CAAX (to assess removal from the PM) or rGFP-FYVE (to assess accumulation in the endosomes). For β-arrestin recruitment assays, cells were transfected with 0.48 μg of receptor-YFP along with 0.12 μg of β-arrestin-RlucII. For β-arrestin/AP-2 binding experiments, cells were transfected with 1 μg Flag-AT1R, 1 μg β2-Adaptin-YFP, and 0.12 μg β-arrestin2-RlucII. For G protein activation, cells were transfected with 3 μg of sp-Flag-AT1R along with either 4.5 μg of the Gαq-polycistronic BRET sensor or 0.24 μg of the Gαi3-RlucII and 0.6 μg of GFP10-Gγ2 and Gβ1 sensors or 0.12 μg PKN-RBD-RlucII and 0.48 μg of rGFP-CAAX. For PKC activation, cells were transfected with 3 μg of sp-Flag-AT1R and 0.18 μg of the PKC sensor. For GTPase activation experiments, cells were transfected with 1 μg Flag-AT1R, 0.48 μg of rGFP-CAAX, and either 0.12 μg of GGA3-PBD-RlucII, PAK-CRIB-RlucII or Raf-RBD-RlucII. For biosensor validation experiments, cells were additionally transfected with 500 ng Flag-K-Ras-WT, Flag-K-Ras-G12V, Flag-K-Ras-SOS-CAAX, HA-ARF6-WT, HA-ARF6-T27N, Myc-Rac1-WT, Myc-Rac1-Q61L or Myc-Rac1-T17N. For PI3K/Akt activation experiments, cells were transfected with 0.48 μg of rGFP-CAAX and 0.12 μg of Akt (PH)-RlucII. After 18 h of transfection, the media was replaced and cells were divided for subsequent experiments. Cells were detached and seeded onto poly-L-ornithine-coated 96-well flat white bottom plates (BrandTech Scientific) at a density of 2.5 × 10^4 cells per well in media. The next day, cells were washed once with Tyrode’s buffer (140 mM NaCl, 2.7 mM KCl, 1 mM CaCl2, 12 mM NaHCO3, 5.6 mM D-glucose, 0.5 mM MgCl2, 0.37 mM NaH2PO4, 25 mM HEPES, pH 7.4) and left in Tyrode’s buffer. For kinetics of β-arrestin recruitment or β-arrestin binding to receptor and AP-2 experiments, cells were serum starved for 30 min, pretreated with 21 (50 µM) or Barbadin (100 µM) for 30 min, stimulated with 100 nM AngII or 1 µM BK and BRET signals were monitored at indicated times using a Victor X Light plate reader (PerkinElmer). Coelenterazine H (final concentration of 5 µM) was added 3–5 min prior to BRET measurements. Filter set was 460/80 nm and 535/30 nm for detecting the RlucII Renilla luciferase (donor) and YFP (acceptor) light emissions, respectively. The BRET ratio was determined by calculating the ratio of the light emitted by YFP over the light emitted by the RlucII. For G protein activation, cells were serum starved, pretreated with compounds for 30 min, stimulated with 100 nM AngII for 2 min (Gαq, Gαi3, and Rho sensors) or 5 min (PKC sensor). […]

SMILES | toxicity to HEK293 cells (flat, cobblestone appearance retained) (HEK293 cells) | β-arrestin trafficking with AT1R into endosomes (microscopy) (β-arrestin2) | block of ARF activation following AT1R stimulation (BRET) (ARF; 50 μM) | IC50 (ARF; AT1R, dose-response) [µM] | AngII-promoted BRET, AT1R-mediated ARF activation (ARF; Comp 21 50 μM, time 0 min) | AngII-promoted BRET, AT1R-mediated ARF activation (ARF; Comp 21 50 μM, time 2 min) | AngII-promoted BRET, AT1R-mediated ARF activation (ARF; Comp 21 50 μM, time 5 min) | AngII-promoted BRET, AT1R-mediated ARF activation (ARF; Comp 21 50 μM, time 10 min) | AngII-promoted BRET, AT1R-mediated ARF activation (ARF; Comp 21 (50 μM), time 1 min) | Arf6 MEAN (Fig.4d) (ARF; Log [Comp 21] (M) -4) | Arf6 MEAN (Fig.4d) (ARF; Log [Comp21] (M) -4.3) | Arf6 MEAN (Fig.4d) (ARF; Log [Comp21] (M) -5) | Arf6 MEAN (Fig.4d) (ARF; Log [Comp21] (M) -5.3) | Arf6 MEAN (Fig.4d) (ARF; Log [Comp 21] (M) -6) | Arf6 MEAN (Fig.4d) (ARF; Log [Comp21] (M) -6.3) | Arf6 MEAN (Fig.4d) (ARF; Log [Comp 21] (M) -7)
Nn1cnc2scc(-c3ccc(Cc4ccccc4)cc3)c2c1=O [Barbadin, reference compound] | non-toxic to cells; also recorded: nontoxic | – | – | – | – | – | – | – | – | – | – | – | – | – | – | –
CC(C)C(=O)N1CCN(c2ccc(NC(=O)c3cc4ccccc4o3)cc2Cl)CC1 [Compound 21] | – | prevented β-arrestins’ trafficking with receptors into endosomes | 40–60% | 7 | 0 | 0.01817 and 0.0425 and 0.0675 | 0.04183 and 0.1107 and 0.06017 and 0.076 | 0.04033 and 0.11 and 0.06283 and 0.0785 | 0.04233 and 0.01117 and 0.065 | 20.8744 | 30.1774 | 40.2199 | 84.9863 | 88.0739 | 99.6353 | 93.4599

Reference: publication PMC8333425, “Discovery of a dual Ras and ARF6 inhibitor from a GPCR endocytosis screen” (Nature Communications, 2021)
